Patent US7307102B2, “Method of preventing or treating estrogen-dependent diseases and disorders” (Duke University, priority 1997, dated 2007)

What was measured:
ER-TAF1 = experiment: C3 promoter-luciferase cotransfection assay in HepG2 cells, ER-TAF1 (AF-2 disrupted); format: cell-based, human
Text: FIGS. 1A and 1B. […] The human C3 promoter (−1807 to +58) fused to the firefly luciferase reporter gene was transfected along with an expression plasmid containing (FIG. 1A) the wild-type human estrogen receptor (ERwt), or (FIG. 1B) a mutated ER in which the AF-2 function had been disrupted (ER-TAFl) into HepG2 cells and tested for transcriptional activation in the presence of increasing concentrations of ER-modulator as indicated. Transfections were normalized for efficiency and cell number by cotransfecting an expression plasmid containing β-galactosidase. The normalized response was obtained by dividing light units by the activity of β-galactosidase as measured in an enzymatic assay. Triplicate transfections were performed. The data shown are representative of multiple experiments performed under similar conditions.
FIGS. 2A-2C. […] FIG. 2A. […] FIG. 2B. […] FIG. 2C. […] Transfections were normalized for efficiency and cell number by cotransfecting an expression plasmid containing β-galactosidase. The normalized response was obtained by dividing light units by the activity of β-galactosidase as measured in an enzymatic assay. Representative assays are shown in which triplicate transfections were performed. Error bars represent the standard error of the mean (SEM).
HepG2 cells were maintained in Modified Eagles Medium (MEM) (Life Technologies, Grand Island, N.Y.) plus 10% Fetal Calf Serum (FCS) (Life Technologies). Cells were plated in 24 well plates (coated with gelatin) 24 hours prior to transfection. DNA was introduced into the cells using Lipofectin (Life Technologies). Briefly, triplicate transfections were performed using 3 μg of total DNA. For standard transfections, 500 ng of pCMV-β-Gal (normalization vector), 1500 ng reporter (variable) and 1000 ng receptor (pRST7-hER (Dana et al, Mol. Endocrinol. 8:1193-1207 (1994)) were used for each triplicate. Incubation of the cells with Lipofectin proceeded for 3 hrs, at which time media was removed, cells were washed with PBS and then induced with the appropriate hormone diluted in phenol red-free media containing 10% charcoal stripped CS (Cyclone Inc.). Incubation with hormone continued for 48 hrs, after which cells were lysed and assayed for luciferase and β-galactosidase activity as previously described (Norris et al, JBC 270:22777-22782 (1995)).
A series of in vitro screens have been developed that permit the classification of ER-modulators into four mechanistically distinct groups (Tzukerman et al, Mol. Endocrinol. 8:21-30 (1994)). […] Using these assays, it has been possible to derive “fingerprints” of known ER-modulators (McDonnell et al, Mol. Endocrinol. 9:659-669 (1995)).
Subsequently, the transfected cells were assayed for luceriferase and β-galactosidase activity. Each data point in this experiment represents the average of triplicate determinations of the transcriptional activity under given experimental conditions.

[1] = Bone mineral density in ovariectomized rats (DEXA, pQCT); format: in vivo, rat; conditions: oral, 28 days
Protocol: FIGS. 3A and 3B. […] FIG. 3A. […] FIG. 3B.
(§1) Animal preparation. […] At sacrifice, animals were euthanized with C02, body weights were recorded and the uteri were removed and weighed. Uterus, vagina and mammary tissue were fixed in 10% neutral buffered formalin. Samples for histologic processing were taken from the mid-point of each uterine horn. Tissue samples were embedded in paraffin, stained with haematoxylin and eosin and evaluated microscopically. Lumbar vertebrae and both left and right tibiae were excised. Total blood cholesterol was measured (Roche Biomedical Laboratories).

[2] = Total serum cholesterol in ovariectomized rats; format: in vivo, rat; conditions: OVX rats, 28 days, lowest concentration tested, FIG. 4
Protocol: as §1

[3] = Uterotrophic assay in immature rats
Protocol: FIG. 5. […] The data shown represent the mean value (±SEM).
Twenty-one day old female Sprague-Dawley rats (30-35 gms) were obtained from Harlan or Taconic Laboratories. Animals were sorted randomly into treatment groups of five, and average weights were recorded for each treatment group. Weights were recorded on each treatment day. […] On day of dosing, drug was diluted in 0.5% methyl cellulose, viscosity of 2% at 25° C.:400 centipoises (Sigma, St. Louis, Mo.)). Oral dosing by gavage was based on a total volume of 10 ml/kg body weight. […] Subcutaneous dosing was based on a total of 2 ml/kg body weight. […] On day 4, animals were sacrificed by C02 asphyxiation, body weights were obtained and uteri were removed, blotted and weighed. Data were expressed as uterine weight/body weight.
In this assay, uterine wet weight was used as a measure of ER-agonist activity in this tissue (FIG. 5).

[4] = Uterine wet weight, body weight and uterine histology in ovariectomized rats, 28 day treatment; format: in vivo, rat
Protocol: FIGS. 8A-8D. […] Photographs were taken at 150× magnification and subsequently enlarged to a final magnification of 600×.
as §1
In addition to measurements of uterine wet weight, a histological examination of the uteri harvested from the same animals was performed (FIGS. 7A-7F (low magnification) and FIGS. 8A-8D (high magnification)).

[5] = system: MCF-7 breast cancer tumors; experiment: Antiestrogen treatment of MCF-7 breast cancer tumors in nude mice (Example 4); format: in vivo, mouse; conditions: two highest doses of GW5638 (0.6 mg, 1.0 mg) vs 1.0 mg tamoxifen, FIG. 9
Protocol: FIG. 9. Effect of anti-estrogen treatment on MCF-7 breast cancer tumors in nude mice.
This study was conducted using tumor cells derived from the MCF-7 breast cancer line. This line is estrogen and progesterone receptor positive, dependent upon hormone and sensitive to antihormones. The tumor cells were inoculated into the flank of ovariectomized, athymic BALB/c Urd nunu mice. The mice were supplemented with slow release estrogen pellets. Animals were given subcutaneous daily injections as indicated below:
Group 1: control (corn oil)
Using calipers, tumors were measured in 2 dimensions, where tumor area=½×w/2×π.

MCF-7/LCC2 = experiment: LCC2 study, MCF-7/LCC2 tumors in nude mice; format: in vivo, mouse; conditions: after 8 weeks, 1.0 mg every three days, FIG. 11
Protocol: This experiment was conducted to determine the ability of GW5638 to retard the growth of this cell line in nude mice relative to control or tamoxifen treated tumors.
40 OVX mice were prepared to accept cells and grouped as follows:
Control animals received nothing and groups 3 and 4 received 0.1 ml injections in corn oil every three days. Tumors were measured Q3 days with calipers, and the area calculated as follows: Area=½×w/2×π.

Question: With `CC/C(=C(\c1ccccc1)c1ccc(/C=C/C(=O)O)cc1)c1ccccc1` [GW5638] as the compound, how does the “inhibition of the partial agonist activity of raloxifene on ER-TAF1” value (ER-TAF1; ER-TAF1) read?
Answer: inhibited

Question: What about the “inhibition of estradiol- and tamoxifen-induced ER-TAF1 transcriptional activity” value (ER-TAF1; ER-TAF1, FIG. 2B) of the same compound?
Answer: capable of inhibiting

Question: And the “agonist activity on ER-TAF1” value (ER-TAF1; ER-TAF1, compound alone, FIG. 1B)?
Answer: functionally inactive

Question: What about the “bone mineral density, lumbar spine” value ([1]; 90-day old OVX rats, FIG. 3A) of the same compound?
Answer: dose-dependent bone protective activity

Question: And the “tibial BMD” value ([1]; OVX rats, FIG. 3B)?
Answer: effective at maintaining total bone mass

Question: What about the “dose at which bone protection is as effective as estradiol” value ([1]; lumbar spine BMD, OVX rats, 3 μmol/kg(1 mg/kg)) of the same compound?
Answer: 3 µmol/kg

Question: And the “total serum cholesterol level” value [2]?
Answer: as effective as estradiol in decreasing serum cholesterol levels

Question: And the “inhibition of the agonist activity of estradiol in the uterus” value ([3]; 21 day old immature rats, in the presence of estradiol)?
Answer: could completely inhibit the agonist activity of estradiol

Question: And the “uterotrophic activity at 10 μm/kg/d” value ([3]; rat, in vivo, po)?
Answer: inactive

Question: What about the “uterotrophic activity (uterine wet weight)” value ([4]; 90-day old OVX rats, 28 days, doses up to three times that required for bone protection, FIG. 6) of the same compound?
Answer: minimal uterotrophic activity

Question: What about the “total body weight versus sham operated animals” value ([4]; OVX rats, 28 days) of the same compound?
Answer: no significant differences

Question: What about the “uterine epithelial cells, histology” value ([4]; OVX rats, 28 days) of the same compound?
Answer: dose-related hypertrophy

Question: And the “uterine stroma, histology” value ([4]; OVX rats, 28 days)?
Answer: marginal increase in intercellular connective tissue and ground substance

Question: What about the “stromal response and eosinophilic infiltration at the highest doses” value ([4]; OVX rats, highest doses) of the same compound?
Answer: less than observed in estradiol treated rats

Question: And the “epithelial hypertrophy at the highest doses” value ([4]; OVX rats, highest doses (3-fold higher than required for bone protection))?
Answer: comparable to that of estradiol treated uteri

Question: And the “effect on tumors compared with tamoxifen” value [5]?
Answer: no significant difference

Question: What about the tumor growth (MCF-7/LCC2) of the same compound?
Answer: equally inhibit growth of this tumor
